Measurements reported in patent publication US20050142130A1, “Use of angiotensin-(1-7) for preventing and/or reducing the formation of neointima” (priority 2001, published 2005).
“Also recorded” adds a separate entry of the source.

How the values were obtained:
[1] = system: stented rat abdominal aorta (neointimal formation); assay: Rat abdominal aorta stenting model, histomorphometry and histology after 28 days; assay type: in vivo, Wistar rats
Protocol: Twenty-eight male Wistar rats (Harlan, Horst, Netherlands) weighing 450 to 520 grams were anesthetized with O2, N2O and isofluorane (Abbot B.V., Hoofddorp, Netherlands). A pre-mounted 2.5×9 mm BeStentTM 2 (Medtronic-Bakken Research, Maastricht, the Netherlands) was implanted in the abdominal aorta as previously described, or a sham operation was performed.^35 Subsequently, an osmotic minipump with a pumping rate of 0.25 μl/hour, lasting for 28 days (Model 2004, Alzet, Charles River Nederland, Maastricht, Netherlands), was implanted subcutaneously for drug delivery via a catheter in the jugular vein. […] rats received angiotensin-(1-7) (Bachem, Weil am Rhein, Germany) (24 μg/kg/hour) (n=7) or saline (0.25 μl/hour) (n=10). Sham-operated rats received saline infusion (n=6). […] At this concentration, Ang-(1-7) binds to the Mas receptor and has subsequent functional effects. Five rats died peri-operatively due to rupture of the aorta. After 28 days, the animals were anesthetized and heparinized with 500 IU intravenously (Leo Pharma B.V., Breda, Netherlands). The abdominal aortas were subsequently harvested, fixed, embedded in methylmetacrylate, sectioned and stained for histological analysis. The endothelial function was tested in isolated thoracic aortic rings. Histomorphometrical analysis was performed on elastica van Gieson-stained sections by measurements of the proximal, middle and distal parts of each stent. To assess neointimal formation, areas within the external elastic lamina (EEL), internal elastic lamina (IEL) and lumen were measured by using digital morphometry. The neointimal area, media area, lumen area and the percentage of stenosis were calculated. The injury and inflammation scores were assessed as described by Schwartz et al. and Kornowski et al. Briefly, each strut was assigned a nominal score from 0 to 3 dependent upon the severity of the injury or inflammation. The average score is calculated by dividing the sum of scores by the number of struts. Total cell density and polymorphonuclear leukocyte density were determined in hematoxylin-eosin stained sections at ×400 magnification and expressed as ×100/mm^2. To assess a single measurement for each stent, the mean values of the proximal, middle and distal parts were calculated. Data are expressed as mean value±standard error of the mean (SEM). Statistical analysis between groups was performed by a student's t-test. Differences in dose-response curves between groups were tested by ANOVA for repeated measures using Greenhouse-Geisser correction for asphericity. Values of p=0.05 were considered statistically significant. For statistical analysis, SPSS software (Chicago, USA) was used.

[2] = in vivo; settings: male, Wistar, rat, iv, 24 ug/kg/hour
Protocol: (§1) Twenty-eight male Wistar rats (Harlan, Horst, Netherlands) weighing 450 to 520 grams were anesthetized with O2, N2O and isofluorane (Abbot B.V., Hoofddorp, Netherlands). A pre-mounted 2.5×9 mm BeStent™ 2 (Medtronic-Bakken Research, Maastricht, the Netherlands) was implanted in the abdominal aorta as previously described, or a sham operation was performed.^35 Subsequently, an osmotic minipump with a pumping rate of 0.25 μl/hour, lasting for 28 days (Model 2004, Alzet, Charles River Nederland, Maastricht, Netherlands), was implanted subcutaneously for drug delivery via a catheter in the jugular vein. Stented rats received angiotensin-(1-7) (Bachem, Weil am Rhein, Germany) (24 μg/kg/hour) (n=7) or saline (0.25 μl/hour) (n=10). Sham-operated rats received saline infusion (n=6). […] At this concentration, Ang-(1-7) binds to the Mas receptor and has subsequent functional effects. Five rats died peri-operatively due to rupture of the aorta.

[3] = system: thoracic aortic rings; assay: Organ bath studies with isolated thoracic aortic rings (endothelial function) from stented, treated rats; assay type: in vivo, Wistar rats
Protocol: as §1, with “BeStentTM” for “BeStent™”, “Stented” left out, “aorta. After 28 days, the animals were anesthetized and heparinized with 500 IU intravenously (Leo Pharma B.V., Breda, Netherlands). The abdominal aortas were subsequently harvested, fixed, embedded in methylmetacrylate, sectioned and stained for histological analysis. […] The endothelium-dependant vasodilatation was assessed by a cumulative dose of meatcholine (10 nM to 10 mM). […] Data are expressed as mean value±standard error of the mean (SEM). […]” for “aorta.”

[4] = stented rats, 24 μg/kg/hour, mean ± SEM

## CC[C@H](C)[C@H](NC(=O)[C@H](Cc1ccc(O)cc1)NC(=O)[C@@H](NC(=O)[C@H](CCCNC(=N)N)NC(=O)[C@@H](N)CC(=O)O)C(C)C)C(=O)N[C@@H](Cc1c[nH]cn1)C(=O)N1CCC[C@H]1C(=O)O [Ang-(1-7), angiotensin-(1-7)]
[1]; [4]
  Neointimal Area: 0.51 ± 0.05 mm^2
  Neointimal Thickness: 112 ± 8 μm
  Percentage Stenosis: 10.4 ± 1.0%
[1]; vs saline control
  IEL Area, change with treatment: −2%
  Mean Injury Score, change with treatment: 18.2%
  Media Area, change with treatment: −12.8%
  Neointimal Area, change with treatment: −27.1%
  Neointimal Thickness, change with treatment: −20.6%
  Percentage Stenosis, change with treatment: −25.7%
[1]; vs saline-treated stented rats
  Decrease in neointimal area: 27%
  Decrease in neointimal thickness: 21%
  Decrease in percentage stenosis: 26%
[2]
  level at time molar: ~0.918 nM
[3]; sodium nitrite 10 mM, phenylephrine precontracted rings, vs sham and control
  Relaxation on endothelium-independent vasodilator sodium nitrite: equal; also recorded: No differences
[3]; thoracic aortic rings, phenylephrine 1 mM, mean ± SEM
  Contraction on phenylephrine: 254±29 μm
